From patent US20220089575A1, “FARNESOID X RECEPTOR AGONISTS AND USES THEREOF” (Metacrine, Inc., priority 2017, published 2022)

Each molecule was assayed against T1, hFXR (Homo sapiens, UniProt Q96RI1) (assay: In Vitro FXR Assay (TK): TK-ECRE-luc reporter in transfected CV-1 cells). Settings: 18 hrs, luminescence, maximum efficacy of <25% of the Fexarmine control classified as '+'.
T1 construct: expressed in transfected cells; host or cells: CV-1 cells
T1 sequence (Q96RI1 1-486): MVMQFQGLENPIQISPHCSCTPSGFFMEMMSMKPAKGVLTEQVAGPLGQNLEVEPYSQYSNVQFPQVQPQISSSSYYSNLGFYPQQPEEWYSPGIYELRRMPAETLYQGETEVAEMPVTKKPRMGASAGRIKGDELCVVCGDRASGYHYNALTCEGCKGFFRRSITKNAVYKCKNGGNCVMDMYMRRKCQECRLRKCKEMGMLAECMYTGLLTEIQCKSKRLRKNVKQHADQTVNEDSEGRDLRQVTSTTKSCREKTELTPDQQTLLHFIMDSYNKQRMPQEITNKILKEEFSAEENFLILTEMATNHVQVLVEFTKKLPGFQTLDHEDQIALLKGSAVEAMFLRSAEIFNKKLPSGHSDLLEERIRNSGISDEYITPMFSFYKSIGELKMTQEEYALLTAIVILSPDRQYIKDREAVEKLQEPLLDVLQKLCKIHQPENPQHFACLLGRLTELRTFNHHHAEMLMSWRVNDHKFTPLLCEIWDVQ
T1 sequence (P19793 1-462 partner): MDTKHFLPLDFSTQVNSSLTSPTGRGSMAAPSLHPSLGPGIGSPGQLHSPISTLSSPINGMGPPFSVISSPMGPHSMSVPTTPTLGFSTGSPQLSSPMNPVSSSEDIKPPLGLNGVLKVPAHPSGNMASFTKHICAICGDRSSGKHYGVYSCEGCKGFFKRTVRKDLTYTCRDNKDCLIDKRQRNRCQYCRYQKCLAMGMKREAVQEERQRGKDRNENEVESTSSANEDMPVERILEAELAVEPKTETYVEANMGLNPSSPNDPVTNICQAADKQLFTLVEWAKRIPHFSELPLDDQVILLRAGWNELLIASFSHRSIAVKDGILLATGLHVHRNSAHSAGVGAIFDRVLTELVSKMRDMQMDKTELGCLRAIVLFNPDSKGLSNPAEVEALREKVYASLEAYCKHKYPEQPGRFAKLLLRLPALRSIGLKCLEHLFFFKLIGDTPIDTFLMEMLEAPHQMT
Type: cell-based
In short: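 Cells are seeded in charcoal double-stripped FBS medium, transfected overnight with FXR/RXR expression and ECRE-driven luciferase reporter plasmids, then treated with serially diluted compounds for 18 h. Lysates are measured for luciferase light output.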

EC50 [nM]	Compound
≤ 250	COc1ccc([C@H]2CC[C@H](CN(c3cc(-c4cnn(C(C)C)c4)ccn3)C(=O)[C@H]3CC[C@H](OC(=O)N4CC(OC(C)C)C4)CC3)CC2)cc1C#N [Compound 7.49, trans-4-(((trans-4-(3-Cyano-4-methoxyphenyl)cyclohexyl)methyl)(4-(1-isopropyl-1H-pyrazol-4-yl)pyridin-2-yl)carbamoyl)cyclohexyl 3-isopropoxyazetidine-1-carboxylate]
≤ 250	COc1ccc([C@H]2CC[C@H](CN(c3cccc(-c4cnc(C5CC5)s4)c3)C(=O)[C@H]3CC[C@H](OC(=O)N4CC(O)C4)CC3)CC2)cc1C [Compound 7.02, trans-4-((3-(2-Cyclopropylthiazol-5-yl)phenyl)((trans-4-(4-methoxy-3-methylphenyl)cyclohexyl)methyl)carbamoyl)cyclohexyl 3-hydroxyazetidine-1-carboxylate]
≤ 250	COc1ccc([C@H]2CC[C@H](CN(c3cc(-c4coc(C(C)C)n4)ccn3)C(=O)[C@H]3CC[C@H](OC(=O)N4CC(O)C4)CC3)CC2)cc1C#N [Compound 7.73, trans-4-(((trans-4-(3-Cyano-4-methoxyphenyl)cyclohexyl)methyl)(4-(2-isopropyloxazol-4-yl)pyridine-2-yl)carbamoyl)cyclohexyl 3-hydroxyazetidine-1-carboxylate]
≤ 250	COc1ccc(C23CCC(CN(c4cc(-c5cnn(C6CC6)c5)ccn4)C(=O)[C@H]4CC[C@H](C(=O)O)CC4)(CC2)CC3)cc1C [Compound 17.19, trans-4-((4-(1-Cyclopropyl-1H-pyrazol-4-yl)pyridin-2-yl)((4-(4-methoxy-3-methylphenyl)bicyclo[2.2.2]octan-1-yl)methyl)carbamoyl) cyclohexanecarboxylic acid]
≤ 250	COc1ccc([C@H]2CC[C@H](CN(c3cccc(-c4cnn(C5CC5)c4)c3)C(=O)[C@H]3CC[C@H](OC(=O)N4CC(CN(C)C)C4)CC3)CC2)cc1C [Compound 7.32, trans-4-((3-(1-Cyclopropyl-1H-pyrazol-4-yl)phenyl)((trans-4-(4-methoxy-3-methylphenyl)cyclohexyl)methyl)carbamoyl)cyclohexyl 3-((dimethylamino)methyl)azetidine-1-carboxylate]
≤ 250	COc1ccc([C@H]2CC[C@H](CN(c3cccc(-c4cnc(C5CC5)s4)c3)C(=O)[C@H]3CC[C@H](C(=O)O)CC3)CC2)nc1C#N [Compound 17.12, trans-4-(((trans-4-(6-Cyano-5-methoxypyridin-2-yl)cyclohexyl)methyl)(3-(2-cyclopropylthiazol-5-yl)phenyl)carbamoyl) cyclohexanecarboxylic acid]
≤ 250	CNC(=O)O[C@H]1CC[C@H](C(=O)N(C[C@H]2CC[C@H](c3ccc(OC)c(C)n3)CC2)c2cc(-c3cnn(C(C)C)c3)ccn2)CC1 [Compound 5.24, trans-4-((4-(1-Isopropyl-1H-pyrazol-4-yl)pyridin-2-yl)((trans-4-(5-methoxy-6-methylpyridin-2-yl)cyclohexyl)methyl)carbamoyl)cyclohexyl methylcarbamate]
250 to 1000	COc1ccc([C@H]2CC[C@H](CN(c3cc(-c4cnc(C5CC5)s4)ccn3)C(=O)[C@H]3CC[C@H](C(=O)O)CC3)CC2)nc1C [Compound 17.10, trans-4-((4-(2-Cyclopropylthiazol-5-yl)pyridin-2-yl)((trans-4-(5-methoxy-6-methylpyridin-2-yl)cyclohexyl)methyl)carbamoyl) cyclohexanecarboxylic acid]
≤ 250	COc1ccc([C@H]2CC[C@H](CN(c3cccc(-c4cnn(C5CC5)c4)c3)C(=O)[C@H]3CC[C@H](NS(C)(=O)=O)CC3)CC2)cc1C [Compound 26.02, trans-N-(3-(1-Cyclopropyl-1H-pyrazol-4-yl)phenyl)-N-((trans-4-(4-methoxy-3-methylphenyl)cyclohexyl)methyl)-4-(methylsulfonamido) cyclohexanecarboxamide]
≤ 250	CCC1CN(C(=O)O[C@H]2CC[C@H](C(=O)N(C[C@H]3CC[C@H](c4ccc(OC)c(C)n4)CC3)c3cccc(-c4cnn(C(C)C)c4)c3)CC2)C1 [Compound 7.60, trans-4-((3-(1-Isopropyl-1H-pyrazol-4-yl)phenyl)((trans-4-(5-methoxy-6-methylpyridin-2-yl)cyclohexyl)methyl)carbamoyl)cyclohexyl 3-ethylazetidine-1-carboxylate]
≥ 1000	COc1ccc([C@H]2CC[C@H](CN(c3cc(-c4coc(C5CC5)n4)ccn3)C(=O)[C@H]3CC[C@H](CN)CC3)CC2)nc1C [Compound 26.22, trans-4-(Aminomethyl)-N-(4-(2-cyclopropyloxazol-4-yl)pyridin-2-yl)-N-((trans-4-(5-methoxy-6-methylpyridin-2-yl)cyclohexyl)methyl) cyclohexanecarboxamide]
≤ 250	COc1ccc([C@H]2CC[C@H](CN(c3cc(-c4coc(C5CC5)n4)ccn3)C(=O)[C@H]3CC[C@H](CNC(=O)C4CCC4)CC3)CC2)nc1C [Compound 30.04, trans-4-(Cyclobutanecarboxamidomethyl)-N-(4-(2-cyclopropyloxazol-4-yl)pyridin-2-yl)-N-((trans-4-(5-methoxy-6-methylpyridin-2-yl)cyclohexyl)methyl) cyclohexanecarboxamide]

Continued, molecule first:

Compound	EC50 [nM]
COc1ccc([C@H]2CC[C@H](CN(c3cc(-c4coc(C5CC5)n4)ccn3)C(=O)[C@H]3CC[C@H](OC(=O)NCC(O)C(C)C)CC3)CC2)nc1C (stereo partly drawn) [Compound 6.89, trans-4-((4-(2-Cyclopropyloxazol-4-yl)pyridin-2-yl)((trans-4-(5-methoxy-6-methylpyridin-2-yl)cyclohexyl)methyl)carbamoyl)cyclohexyl (2-hydroxy-3-methylbutyl)carbamate]	≤ 250
CN(C)c1ccc([C@H]2CC[C@H](CN(c3cccc(-c4coc(C5CC5)n4)c3)C(=O)[C@H]3CC[C@H](OC(=O)NCCO)CC3)CC2)cn1 [Compound 4.22, trans-4-((3-(2-Cyclopropyloxazol-4-yl)phenyl)((trans-4-(6-(dimethylamino)pyridine-3-yl)cyclohexyl)methyl)carbamoyl)cyclohexyl (2-hydroxyethyl)carbamate]	≤ 250
COc1ccc([C@H]2CC[C@H](CN(c3cc(-c4coc(C5CC5)n4)ccn3)C(=O)[C@H]3CC[C@H](OC(=O)NCC(C)(C)O)CC3)CC2)nc1C [Compound 6.70, trans-4-((4-(2-Cyclopropyloxazol-4-yl)pyridin-2-yl)((trans-4-(5-methoxy-6-methylpyridin-2-yl)cyclohexyl)methyl)carbamoyl)cyclohexyl (2-hydroxy-2-methylpropyl)carbamate]	≤ 250
COc1ccc([C@H]2CC[C@H](CN(c3cccc(-c4coc(C5CC5)n4)c3)C(=O)[C@H]3CC[C@H](OC(=O)N4CC(O)C4)CC3)CC2)nc1C [Compound 7.66, trans-4-((3-(2-Cyclopropyloxazol-4-yl)phenyl)((trans-4-(5-methoxy-6-methylpyridin-2-yl)cyclohexyl)methyl)carbamoyl)cyclohexyl 3-hydroxyazetidine-1-carboxylate]	≤ 250
COc1ncc(-c2cccc(N(C[C@H]3CC[C@H](c4ccc(OC)c(C)c4)CC3)C(=O)[C@H]3CC[C@H](OCc4ccccc4)CC3)c2)s1 [Compound 18.11, trans-4-(Benzyloxy)-N-((trans-4-(4-methoxy-3-methylphenyl)cyclohexyl)methyl)-N-(3-(2-methoxythiazol-5-yl)phenyl)cyclohexanecarboxamide]	≥ 1000
COc1ccc([C@H]2CC[C@H](CN(c3cccc(-c4cnc(C5CC5)s4)c3)C(=O)[C@H]3CC[C@H](OC(=O)NCCO)CC3)CC2)nc1C#N [Compound 6.06, trans-4-(((trans-4-(6-Cyano-5-methoxypyridin-2-yl)cyclohexyl)methyl) (3-(2-cyclopropylthiazol-5-yl)phenyl)carbamoyl)cyclohexyl (2-hydroxyethyl)carbamate]	≤ 250
COc1ccc([C@H]2CC[C@H](CN(c3cccc(-c4coc(C(C)C)n4)c3)C(=O)[C@H]3CC[C@H](OC(=O)NCCO)CC3)CC2)nc1C [Compound 6.48, trans-4-((3-(2-Isopropyloxazol-4-yl)phenyl)((trans-4-(5-methoxy-6-methylpyridin-2-yl)cyclohexyl)methyl)carbamoyl)cyclohexyl (2-hydroxyethyl)carbamate]	≤ 250
COC(=O)NCC(=O)N[C@H]1CC[C@H](C(=O)N(C[C@H]2CC[C@H](c3ccc(OC)c(C)c3)CC2)c2cccc(-c3cnc(C4CC4)s3)c2)CC1 [Compound 31.05, Methyl (2-((trans-4-((3-(2-cyclopropylthiazol-5-yl)phenyl)((trans-4-(4-methoxy-3-methylphenyl)cyclohexyl)methyl)carbamoyl)cyclohexyl)amino)-2-oxoethyl)carbamate]	≤ 250
